Measured values from article PMC9072125 (RSC Advances, 2019).

System: LfDAPDH
Details: 200 mM NH4Cl, 0.5 mM NADPH, 50 mM Na2CO3/NaHCO3 pH 9.0, 30 °C; reductive amination

Compound: O=C(O)C(=O)Cc1ccccc1 [PPA]
- Km: 7.61 ± 0.14 mM
